Experimental data as given in US12459951B2, “Compounds that interact with RAS superfamily proteins for treatment of cancers, inflammatory diseases, rasopathies, and fibrotic disease” (SHY Therapeutics, LLC, priority 2022, dated 2025).

Assays:
[1] = tested on: Smad2/Smad3 phosphorylation; experiment: Phospho-Smad2/3 Inhibition Assay (western blot), Panc-1; format: cell-based, human; details: at 10 μM, Panc-1 pancreatic cancer cell line; starred symbols = activation
Summary of the method: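 Western blotting of lysates (15-50 μg protein) read phosphorylation of Smad2 Ser465/467 and Smad3 Ser423/425. Before lysis, Panc-1 cells got 1 h of 10 ng/ml TGF-b1 following 3 h compound exposure at 37° C (10 μM final, or serial dilutions for IC50, 0.3% DMSO) after overnight 0.5% FBS starvation.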

[2] = tested on: KRas wild type; experiment: Ras GTP Binding Domain Inhibition Assay (Ras Superfamily Assay); details: 20 μM compound; for KRas wild type + SOS: % inh.: with SOS; for KRas wild type: % inh.: without SOS
Summary of the method: (§1)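 His-tagged GTPases immobilised on nickel-coated plates, pre-incubated with compound (20 μM single point, or serial dilution for IC50) 3 h at room temperature, with or without 10-30 μg/mL Sos (residues 556-1049) in the final hour. Bound Cy3- or Cy5-GTP (100 nM, 45 min) measured by fluorescence after washing.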

[3] = molecular target: T1, Rho-A (Homo sapiens, UniProt P61586); experiment: as above; details: read-out: Rho-A: % inh..
T1 construct: made in house
T1 sequence (P61586 whole entry): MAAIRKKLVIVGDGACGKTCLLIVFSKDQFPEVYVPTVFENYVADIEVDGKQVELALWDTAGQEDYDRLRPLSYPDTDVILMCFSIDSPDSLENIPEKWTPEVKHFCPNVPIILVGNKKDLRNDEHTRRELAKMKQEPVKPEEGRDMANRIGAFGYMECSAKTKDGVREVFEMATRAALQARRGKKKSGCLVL
Summary of the method: as §1

[4] = tested on: KRas G12C mutant; experiment: as above; details: 20 μM compound; for KRas G12C mutant + SOS: % inh.: with SOS; for KRas G12C mutant: % inh.: without SOS
Summary of the method: as §1

[5] = molecular target: T2, Rac-1 (Homo sapiens, UniProt P63000); experiment: as above; details: read-out: Rac-1: % inh.
T2 construct: made in house
Summary of the method: as §1

[6] = tested on: KRas Q61H mutant; experiment: as above; details: 20 μM compound; for KRas Q61H mutant + SOS: % inh.: with SOS; for KRas Q61H mutant: % inh.: without SOS
Summary of the method: as §1

[7] = tested on: KRas G12D mutant; experiment: as above; details: 20 μM compound; for KRas G12D mutant + SOS: % inh.: with SOS; for KRas G12D mutant: % inh.: without SOS
Summary of the method: as §1

Row | SMILES | KRas wild type + SOS: % inh. [2] | KRas wild type: % inh. [2] | inhibition at 20 µM [3] [%] | KRas G12C mutant + SOS: % inh. [4] | KRas G12C mutant: % inh. [4] | inhibition at 20 µM [5] [%] | KRas Q61H mutant + SOS: % inh. [6] | KRas Q61H mutant: % inh. [6] | KRas G12D mutant + SOS: % inh. [7] | KRas G12D mutant: % inh. [7] | % inh of Smad2/3 phosphorylation in Panc-1 [1]
1 | COCC1CCN(c2nc(-c3ccccn3)nn3cc(-c4ccn(C(C)C)n4)c(-c4ccccc4)c23)C1 (racemic) [Compound 25, rac 6-(1-Isopropyl-1H-pyrazol-3-yl)-4-(3-(methoxymethyl)pyrrolidin-1-yl)-5-phenyl-2-(pyridin-2-yl)pyrrolo[2,1-f][1,2,4]triazine] | A (A = 1-25% inhibition) | A (A = 1-25% inhibition) | 1 to 25 | A (A = 1-25% inhibition) | A (A = 1-25% inhibition) | 1 to 25 | A (A = 1-25% inhibition) | A (A = 1-25% inhibition) | A (A = 1-25% inhibition) | A (A = 1-25% inhibition) | 0 (0 = 0% inhibition)
2 | COc1cccc(-c2cn3nc(-c4nccn4C)nc(N[C@@H]4CC[C@H](OC)C4)c3c2-c2ccccc2)c1Cl (racemic) [Compound 33, rac 6-(2-Chloro-3-methoxyphenyl)-N-((1R,3S)-3-methoxycyclopentyl)-2-(1-methyl-1H-imidazol-2-yl)-5-phenylpyrrolo[2,1-f][1,2,4]triazin-4-amine] | 0 (0 = 0% inhibition) | A (A = 1-25% inhibition) | 1 to 25 | 0 (0 = 0% inhibition) | A (A = 1-25% inhibition) | 0 | 0 (0 = 0% inhibition) | A (A = 1-25% inhibition) | 0 (0 = 0% inhibition) | A (A = 1-25% inhibition) | D (D = 76-100% inhibition)
3 | COc1cccc(-c2cn3nc(-c4nccn4C)nc(N[C@@H]4CC[C@@H](OC)C4)c3c2-c2ccccn2)c1F (racemic) [Compound 46, rac 6-(2-Fluoro-3-methoxyphenyl)-N-((1R,3R)-3-methoxycyclopentyl)-2-(1-methyl-1H-imidazol-2-yl)-5-(pyridin-2-yl)pyrrolo[2,1-f][1,2,4]triazin-4-amine] | A (A = 1-25% inhibition) | A (A = 1-25% inhibition) | 26 to 49 | A (A = 1-25% inhibition) | B (B = 26-49% inhibition) | 50 to 75 | D (D = 76-100% inhibition) | D (D = 76-100% inhibition) | A (A = 1-25% inhibition) | B (B = 26-49% inhibition) | 0 (0 = 0% inhibition)
4 | COc1cccc(-c2cn3nc(-c4nccn4C)nc(N[C@H]4C[C@H](OC)C4)c3c2-c2ccccc2)c1Cl [Compound 32, 6-(2-Chloro-3-methoxyphenyl)-N-((1r,3r)-3-methoxycyclobutyl)-2-(1-methyl-1H-imidazol-2-yl)-5-phenylpyrrolo[2,1-f][1,2,4]triazin-4-amine] | 0 (0 = 0% inhibition) | A (A = 1-25% inhibition) | 1 to 25 | 0 (0 = 0% inhibition) | 0 (0 = 0% inhibition) | 0 | A (A = 1-25% inhibition) | A (A = 1-25% inhibition) | 0 (0 = 0% inhibition) | 0 (0 = 0% inhibition) | D (D = 76-100% inhibition)

Now from value to molecule, other results behind:

Row | KRas wild type + SOS: % inh. [2] | KRas wild type: % inh. [2] | inhibition at 20 µM [3] [%] | KRas G12C mutant + SOS: % inh. [4] | KRas G12C mutant: % inh. [4] | inhibition at 20 µM [5] [%] | KRas Q61H mutant + SOS: % inh. [6] | KRas Q61H mutant: % inh. [6] | KRas G12D mutant + SOS: % inh. [7] | KRas G12D mutant: % inh. [7] | SMILES | % inh of Smad2/3 phosphorylation in Panc-1 [1]
5 | 0 (0 = 0% inhibition) | A (A = 1-25% inhibition) | 1 to 25 | 0 (0 = 0% inhibition) | A (A = 1-25% inhibition) | 1 to 25 | 0 (0 = 0% inhibition) | A (A = 1-25% inhibition) | A (A = 1-25% inhibition) | A (A = 1-25% inhibition) | Cc1c(-c2ccn(C(C)C)n2)cn2nc(-c3nccn3C)nc(Nc3cc(C4CC4)no3)c12 [Compound 69, 3-Cyclopropyl-N-(6-(1-isopropyl-1H-pyrazol-3-yl)-5-methyl-2-(1-methyl-1H-imidazol-2-yl)pyrrolo[2,1-f][1,2,4]triazin-4-yl)isoxazol-5-amine] | A (A = 1-25% inhibition)
6 | B (B = 26-49% inhibition) | C (C = 50-75% inhibition) | 50 to 75 | A (A = 1-25% inhibition) | A (A = 1-25% inhibition) | 26 to 49 | D (D = 76-100% inhibition) | D (D = 76-100% inhibition) | C (C = 50-75% inhibition) | C (C = 50-75% inhibition) | COc1cc(-c2cn3nc(-c4nccn4C)nc(Nc4cc(OC)ncn4)c3c2C)ccn1 [Compound 50, 6-(2-Methoxypyridin-4-yl)-N-(6-methoxypyrimidin-4-yl)-5-methyl-2-(1-methyl-1H-imidazol-2-yl)pyrrolo[2,1-f][1,2,4]triazin-4-amine] | B (B = 26-45% inhibition)
7 | D (D = 76-100% inhibition) | D (D = 76-100% inhibition) | 76 to 100 | C (C = 50-75% inhibition) | D (D = 76-100% inhibition) | 76 to 100 | D (D = 76-100% inhibition) | C (C = 50-75% inhibition) | D (D = 76-100% inhibition) | D (D = 76-100% inhibition) | COc1ccnc(Nc2nc(-c3nccn3C)nn3cc(-c4ccn(C(C)C)n4)c(C)c23)c1 [Compound 58, 6-(1-Isopropyl-1H-pyrazol-3-yl)-N-(4-methoxypyridin-2-yl)-5-methyl-2-(1-methyl-1H-imidazol-2-yl)pyrrolo[2,1-f][1,2,4]triazin-4-amine] | C (C = 46-75% inhibition)
